The values below come from US8410106B2, “Hydrazine-substituted anthranilic acid derivatives” (Bayer Cropscience AG, priority 2010, dated 2013).

The nature of data set [1]: logP determination by HPLC on reversed-phase columns (C 18), EEC Directive 79/831 Annex V.A8. It is filed as physicochemical.
In data set [2] the test system is caterpillars of the army worm (Spodoptera frugiperda). Put plainly: Spodoptera frugiperda test (SPODFR spray treatment). It is filed as in vivo. Particulars: foliar, 168 h, read-out: activity (caterpillars killed).
The subject of data set [3] is green peach aphid (Myzus persicae). Put plainly: Myzus test (MYZUPE spray treatment). Type of data set: in vivo. Particulars: in Brassica rapa, foliar, 144 h, read-out: activity (aphids killed). The method, then:
After 6 days the activity is determined, in %.

Where [4] appears, read: HPLC, reversed-phase C 18, table value without method mark, read-out: logP.

Like-named read-outs stand apart in the source and are kept apart here.

Turning to `COC(=O)N(C)NC(=O)c1cc(Cl)cc(C)c1NC(=O)c1cc(Cn2nc(C(F)(F)F)cc2C(F)(F)F)nn1-c1ncc(C(F)(F)F)cc1Cl` [Example 10], the chromatographic logP in data set [1] (setting [4]) was 4.35.
In the case of `COC(=O)N(C)NC(=O)c1cc(Cl)cc(Cl)c1NC(=O)c1cc(Cn2nc(C(F)(F)F)cc2-c2ccccc2)nn1-c1ncccc1Cl` [Example 15], the chromatographic logP in data set [1] (setting [4]) is 3.82. In addition, the pest or weed control at 100 g/ha in data set [2] (application rate 100 g/ha, after 7 days, maize leaf discs, spray) is 100%.
In the case of `COC(=O)N(C)NC(=O)c1cc(Cl)cc(Cl)c1NC(=O)c1cc(Cn2nc(C(F)(F)F)cc2C(F)(F)F)nn1-c1ncc(C(F)(F)F)cc1Cl` [Example 18], the chromatographic logP in data set [1] (setting [4]) turned out to be 4.32.
In the case of `COC(=O)N(C)NC(=O)c1cc(Cl)cc(Cl)c1NC(=O)c1cc(Cn2nc(C(F)(F)F)nc2C)nn1-c1ncccc1Cl` [Example 21], the pest or weed control at 100 g/ha in data set [3] amounted to 90%; in data set [2] (in Zea mays), 100%. This molecule showed a chromatographic logP in data set [1] of 2.51.
Regarding `COC(=O)N(C)NC(=O)c1cc(Cl)cc(C)c1NC(=O)c1cc(Cn2cc(C(C)(C)C)nn2)nn1-c1ncccc1Cl` [Example 24], the chromatographic logP in data set [1] amounted to 2.53.
As for `COC(=O)N(C)N(C)C(=O)c1cc(Cl)cc(C)c1NC(=O)c1cc(Cn2cc(C3CC3)nn2)nn1-c1ncccc1Cl` [Example 39], the pest or weed control at 100 g/ha in data set [3] turned out to be 80%. For the same molecule, in data set [1], the chromatographic logP turned out to be 2.71.
For the molecule `COC(=O)N(C)N(C)C(=O)c1cc(Cl)cc(C)c1NC(=O)c1cc(Cn2cc(C(C)(C)C)nn2)nn1-c1ncccc1Cl` [Example 40], the chromatographic logP in data set [1] is 2.98.
Turning to `COC(=O)N(C)NC(=O)c1cc(Cl)cc(Cl)c1NC(=O)c1cc(Cn2nnc(C(F)(F)F)n2)nn1-c1ncccc1Cl` [Example 43], the chromatographic logP in data set [1] was 2.92.
Same read-out and setting: for `COC(=O)N(C)NC(=O)c1cc(F)cc(C)c1NC(=O)c1cc(Cn2nnc(C(F)(F)C(F)(F)F)n2)nn1-c1ncccc1Cl` [Example 44] the value was 3.05.
Consider `COC(=O)N(C)NC(=O)c1cc(C#N)cc(C)c1NC(=O)c1cc(Cn2nnnc2C(F)(F)F)nn1-c1ccccc1Cl` [Example 55], for which the chromatographic logP in data set [1] (setting [4]) was found to be 2.69.
The same measure, in the same setting: the result for `COC(=O)N(C)NC(=O)c1cc(C#N)cc(C)c1NC(=O)c1cc(Cn2nnc(C(F)(F)F)n2)nn1-c1ccccc1Cl` [Example 56] reads 2.97.
For `COC(=O)NNC(=O)c1cc(C#N)cc(C)c1NC(=O)c1cc(Cn2nnc(C(F)(F)F)n2)nn1-c1ccccc1Cl` [Example 58], the chromatographic logP in data set [1] (setting [4]) was 2.79.
Molecule `COC(=O)NNC(=O)c1cc(Cl)cc(C)c1NC(=O)c1cc(Cn2cc(C(C)(C)C)nn2)nn1-c1ncccc1Cl` [Example 62] had a chromatographic logP in data set [1] of 2.38. In addition, the pest or weed control at 100 g/ha in data set [2] (in Zea mays) was 100%.
The molecule `COC(=O)N(C)NC(=O)c1cc(Cl)cc(C)c1NC(=O)c1cc(Cn2cnc(SC)n2)nn1-c1ncccc1Cl` [Example 64] gave a chromatographic logP in data set [1] of 2.09.
On to `COC(=O)N(C)NC(=O)c1cc(Cl)cc(C)c1NC(=O)c1cc(Cn2nc(C)c(Br)c2C)nn1-c1ncccc1Cl` [Example 65], for which the figures for the pest or weed control at 100 g/ha in data set [3] and in data set [2] (in Zea mays) were 80% and 100%, respectively. In data set [1], this molecule displayed a chromatographic logP of 2.97.
Turning to `COC(=O)N(C)NC(=O)c1cc(Cl)cc(C)c1NC(=O)c1cc(CNS(=O)(=O)c2ccccc2C(F)(F)F)nn1-c1ncccc1Cl` [Example 70], the chromatographic logP in data set [1] (setting [4]) stood at 2.81.
Regarding `COC(=O)N(C)NC(=O)c1cc(Cl)cc(C)c1NC(=O)c1cc(CNS(=O)(=O)c2ccccc2)nn1-c1ncccc1Cl` [Example 71], in data set [1], the chromatographic logP stood at 2.42.
Take `COC(=O)N(C)NC(=O)c1cc(C#N)cc(C)c1NC(=O)c1cc(Cn2cnc(C(F)(F)F)c2C(F)(F)F)nn1-c1ncccc1Cl` [Example 76]: the chromatographic logP in data set [1] (setting [4]) is 2.77.
With `COC(=O)N(C)NC(=O)c1cc(C#N)cc(C)c1NC(=O)c1cc(Cn2cnc(C(F)(F)F)c2)nn1-c1ncccc1Cl` [Example 78], the pest or weed control at 100 g/ha in data set [3] was determined as 90%. Moreover, in data set [1], the chromatographic logP stood at 2.1.
Take `COC(=O)NNC(=O)c1cc(I)cc(C)c1NC(=O)c1cc(Cn2cnc(C(F)(F)F)c2)nn1-c1ncccc1Cl` [Example 80]: in data set [1], the chromatographic logP stood at 2.38.
